# Measurements as given in US10034893B2, “5, 6-D2 uridine nucleoside/tide derivatives” (priority 2013, dated 2018).
# System: HCV 1a genotype replicon (Huh-1a7 cell line, strain H77)
# Experiment: HCV Replicon Assay qRT-PCR, genotype 1a
# Type: cell-based
# Conditions: Hepatitis C virus, read-out: 1a EC50
# Text: HCV replicon cell lines (kindly provided by R. Bartenschlager) isolated from colonies as described by Lohman et al. (Lohman et al. (1999) Science 285: 110-113, expressly incorporated by reference in its entirety) and used for all experiments. One of the HCV replicon cell lines (strain Conl, genotype 1b) has the nucleic acid sequence set forth in EMBL Accession No.: AJ242651, the coding sequence of which is from nucleotides 1801 to 8406. Another replicon cell line (strain H77, genotype 1a) was constructed as described by Yi et. al. (Yi et. al. (2004) Journal of Virology 78(15):7904-15). […]
# EC50 values of single agent compounds were determined by HCV RNA detection using quantitative RT-PCR, according to the manufacturer's instructions, with a TAQMAN® One-Step RT-PCR Master Mix Reagents Kit (Cat#AB 4309169, Applied Biosystems) on an ABI Model 7500 thermocycler. EC50 values of combinations are similarly determined by HCV RNA detection using quantitative RT-PCR. The TAQMAN primers to use for detecting and quantifying HCV RNA obtained from Integrated DNA Technologies. HCV RNA is normalized to GAPDH RNA levels in drug-treated cells, which is detected and quantified using the Human GAPDH Endogenous Control Mix (Applied Biosystems, AB 4310884E). […] Chemical agent cytotoxicity is evaluated using an MTS assay according to the manufacturer's directions (Promega). […]
smiles,measurement,value
[2H]c1cn([C@@H]2O[C@H](CO[P@@](=O)(N[C@@H](C)C(=O)OC(C)C)Oc3ccccc3)C(O)C2(C)F)c(=O)[nH]c1=O (stereo partly shown) [Example 1],EC50,100 to 1000 nM
